Earlier results in US20230346899A1 (priority 2022, published 2023).

Tested on: SARS-CoV-2
Details: moderate COVID-19 patients

aprotinin
Median time to elimination of SARS-CoV-2 confirmed by RT-PCR, days (IQR): 7.5 (6-9) days | Median time to improvement in clinical status by 2 points on the WHO-OSCI, days (IQR): 11.0 (6-11) days | Median time to normalization of CRP concentration (≤10 mg/L) in patient's blood, days (IQR): 6.0 (6-6) days | Median time to normalization of D-dimer concentration (<253 ng/mL) in patient's blood, days (IQR): 4.5 (3-6) days | Median time to normalization of body temperature (<37° C.), days (IQR): 3.0 (2-3) days

favipiravir [FVP + SOC)]
Median time to elimination of SARS-CoV-2 confirmed by RT-PCR, days (IQR): 4.5 (4-9) days | Median time to improvement in clinical status by 2 points on the WHO-OSCI, days (IQR): 14.0 (11.5-16) days | Median time to normalization of CRP concentration (≤10 mg/L) in patient's blood, days (IQR): 14.0 (5.5-14) days | Median time to normalization of body temperature (<37° C.), days (IQR): 2.0 (1-3) days
